Results as given in paper PMC5746060, “General and Modular Strategy for Designing Potent, Selective, and Pharmacologically Compliant Inhibitors of Rhomboid Proteases” (Cell Chemical Biology, 2017).
Starred links: 1 amine or outer side, 2 acyl side, 3 side chain; linkers in the order of their positions; H or OH if unused. Non-standard residues stand in square brackets, D forms with d. Residues, ends and D or L forms follow the SMILES beside them. *: point of attachment. NH(4-phenylbutyl) = c1ccc(CCCCN*)cc1; X1 = C[C@H](N[*:1])C(=O)C(=O)[*:2]; NHPhenethyl = c1ccc(CCN*)cc1

Experiments:
MjROM = assay: activity-based probe competition assay, rhomboid panel; format: biochemical, Methanocaldococcus jannaschii; details: 50 μM and 0.5 μM; outcompeted the ABP even at 500 nM
Source text: (§1) Any enzyme inhibitors to be used as specific tools for cell biology or as starting points for drug development must show sufficient level of selectivity toward their intended target. This is particularly important for compounds that react with the catalytic nucleophile common to many serine hydrolases. […] To map the selectivity of peptidyl ketoamides more objectively and widely, we employed activity-based probe (ABP) competition assays that enable a more general and substrate-independent measurement of inhibitory potency, because they rely solely on the competition between a fluorescently labeled activity-based probe and the tested inhibitor ([Nguyen et al., 2015], [Serim et al., 2012]). […]
(§2) Figure 5 Selectivity of Peptidyl Ketoamides (A) Selectivity of compounds 9, 10, and 11 for nine rhomboid proteases was profiled using activity-based probe competition assay at 50 μM and 0.5 μM concentration. […] (B) Selectivity of compounds 9, 10, and 11 against human serine hydrolases was analyzed using EnPlex as described ([Bachovchin et al., 2014]).
(§3) For inhibitor selectivity profiling against rhomboid proteases ([Wolf et al., 2015]), 400 ng of a purified protein preparation of E. coli GlpG was diluted in 30 μL of reaction buffer (20 mM HEPES, pH 7.4, with 0.05% (w/v) DDM). […] Gels were scanned on a Typhoon Trio+ and analyzed using ImageJ. […]

EcGlpG = target: T1, EcGlpG (Escherichia coli, UniProt P09391); assay: as above; format: biochemical, E. coli; details: 50 μM and 0.5 μM; outcompeted the ABP even at 500 nM
T1 construct: made in house; host or cells: E. coli C41(DE3)
T1 sequence (P09391 whole entry): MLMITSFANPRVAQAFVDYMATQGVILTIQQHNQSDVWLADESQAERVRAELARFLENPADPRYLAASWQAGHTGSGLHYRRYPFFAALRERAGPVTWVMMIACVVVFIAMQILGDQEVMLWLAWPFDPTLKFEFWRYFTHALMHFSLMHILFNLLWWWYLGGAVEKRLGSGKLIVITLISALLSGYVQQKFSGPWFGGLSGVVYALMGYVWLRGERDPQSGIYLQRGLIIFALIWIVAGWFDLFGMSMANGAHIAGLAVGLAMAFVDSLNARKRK
Source text: as §1, §2, §3

VcROM = assay: as above; format: biochemical, Vibrio cholerae; details: 50 μM and 0.5 μM; outcompeted the ABP even at 500 nM
Source text: as §1, §2, §3

AaROM = assay: as above; format: biochemical, Aquifex aeolicus; details: 50 μM and 0.5 μM
Source text: as §1, §2, §3

[1] = system: about 100 human serine hydrolases; assay: EnPlex multiplex ABP competition profiling; format: biochemical; details: concentration range where the ketoamides inhibit rhomboid proteases
Method: (§4) Figure 5 Selectivity of Peptidyl Ketoamides (A) Selectivity of compounds 9, 10, and 11 for nine rhomboid proteases was profiled using activity-based probe competition assay at 50 μM and 0.5 μM concentration. The upper limit of enzyme concentration was 0.4 μM. (B) Selectivity of compounds 9, 10, and 11 against human serine hydrolases was analyzed using EnPlex as described ([Bachovchin et al., 2014]).
(§5) We next examined peptidyl ketoamides for their possible off-target effects on other serine proteases. To get a representative picture of the selectivity of peptidyl ketoamides, we employed a recently developed EnPlex technology, which allows multiplex analysis of ABP competition with about 100 human serine hydrolases, mostly proteases ([Bachovchin et al., 2014]).
(§6) For inhibitor selectivity profiling against rhomboid proteases ([Wolf et al., 2015]), 400 ng of a purified protein preparation of E. coli GlpG was diluted in 30 μL of reaction buffer (20 mM HEPES, pH 7.4, with 0.05% (w/v) DDM). For other rhomboids, amounts were taken that gave similar labeling intensity during profiling. Rhomboids were incubated for 30 min at room temperature with the indicated concentration of compound, 100 μM DCI as positive control, or an equal volume of DMSO as negative control. Next, TAMRA-FP serine hydrolase probe (Thermo Fisher #88318) was added to a final concentration of 1 ìM and incubated for 2 h at 37°C in the dark. The reaction was stopped by addition of 4× Laemmli buffer and the reaction mixture was resolved on 15% SDS-PAGE. Gels were scanned on a Typhoon Trio+ and analyzed using ImageJ. The intensity of each rhomboid protease band calculated by ImageJ was normalized against its corresponding DMSO-treated counterpart (100% activity) to indicate the residual activity left after inhibition. The remaining activity was used to calculate the percentage of inhibition depicted in the heatmap. Selectivity profiles against human serine hydrolases were determined by EnPlex as described previously ([Bachovchin et al., 2014]).

[2] = target: dipeptidylpeptidase 7 (DPP7) (Homo sapiens, UniProt Q9UHL4); assay: EnPlex multiplex ABP competition profiling; format: biochemical; details: off-target hit; concentration range where they inhibit rhomboid proteases
Method: as §4, §5, §6

CC(=O)N[C@@H](CCCNC(=N)N)C(=O)N[C@H](C(=O)N[C@@H](CCCNC(=N)N)C(=O)N[C@@H](Cc1c[nH]cn1)C(=O)N[C@@H](C)C(=O)C(=O)NCCc1ccccc1)C(C)C [compound 9, Ac-RVRHA-CONH-phenylethyl] (Ac-RVRH[X1]-NHPhenethyl)
competition with ABP labeling of MjROM (MjROM): potently competed
competition with ABP labeling of EcGlpG (EcGlpG): potently competed
competition with ABP labeling of VcROM (VcROM): potently competed
competition with ABP labeling of AaROM (AaROM): none of these compounds were able to compete
inhibition of human serine hydrolases (EnPlex selectivity profile) [1]: fail to inhibit most of the tested human serine hydrolases
inhibition of DPP7 (EnPlex) [2]: the sequence related dipeptidylpeptidase 7 (DPP7)

CC(=O)N[C@@H](CCCNC(=N)N)C(=O)N[C@H](C(=O)N[C@@H](CCCNC(=N)N)C(=O)N[C@@H](Cc1c[nH]cn1)C(=O)N[C@@H](C)C(=O)C(=O)NCCCCc1ccccc1)C(C)C [compound 11, Ac-RVRHA-CONH-phenylbutyl] (Ac-RVRH[X1]-{NH(4-phenylbutyl)})
competition with ABP labeling of MjROM (MjROM): potently competed
competition with ABP labeling of EcGlpG (EcGlpG): potently competed
competition with ABP labeling of VcROM (VcROM): potently competed
competition with ABP labeling of AaROM (AaROM): none of these compounds were able to compete
inhibition of human serine hydrolases (EnPlex selectivity profile) [1]: fail to inhibit most of the tested human serine hydrolases
inhibition of DPP7 (EnPlex) [2]: the sequence related dipeptidylpeptidase 7 (DPP7)
